The values that follow come from patent US10555932B2, “Method of restoring analgesic efficacy of alpha2-adrenoceptor agonists in neuropathic pain treatment” (KOREA INSTITUTE OF SCIENCE AND TECHNOLOGY, priority 2016, dated 2020).

Where a name gives a salt, the structure may show the parent alone.

Data set [1] deals with mice having neuropathic pain induced by a spared nerve injury (SNI). Conditions: for analgesic efficacy at the chronic stage of the neuropathic pain / analgesic efficacy at the earlier stage of the neuropathic pain: agonist alone; for analgesic efficacy upon co-administration of CCG 50014 (RGS4 inhibitor): at 14, 28, or even 56 days after SNI, CCG50014 intrathecally 5 minutes before agonist (FIGS. 3 and 4); for analgesic effect of 1 nmol at 14 days after SNI / analgesic effect at 28 days after SNI / analgesic effect at 56 days after SNI / analgesic effect at 14 days after SNI / higher dose needed at 56 days after SNI for analgesic effect similar to that at 14 days after SNI / neuropathic pain induced by SNI (withdrawal threshold): mouse; for analgesic effect of 1 nmol at 14 days after SNI / analgesic effect at 28 days after SNI / analgesic effect at 56 days after SNI / analgesic effect at 14 days after SNI / higher dose needed at 56 days after SNI for analgesic effect similar to that at 14 days after SNI: intrathecal; for analgesic effect of 1 nmol at 14 days after SNI: alone (FIGS. 5 and 6); for analgesic effect at 28 days after SNI / analgesic effect at 56 days after SNI / analgesic effect at 14 days after SNI / higher dose needed at 56 days after SNI for analgesic effect similar to that at 14 days after SNI: alone; for analgesic effect at 14 days after SNI: as doses increased; for higher dose needed at 56 days after SNI for analgesic effect similar to that at 14 days after SNI: relative to 1 nmol at 14 days; for neuropathic pain induced by SNI (withdrawal threshold): single intrathecal injection, agonist alone (FIGS. 1 and 2). The source says: To prepare neuralgia-induced mouse models, mice having a genetic background of 129S4/SvJae×C57BL/6J were used. According to a modification of the method described in the related art, a spared nerve injury (SNI) of sciatic nerve was induced in the mice.
Briefly, the mice were anesthetized with 3% isoflurane in a mixture of N2O/O2 gas. At the right hindlimb, incision was made at a mid-thigh level, and peripheral branches (sural, common peroneal, and tibial nerves) of the sciatic nerve were exposed. Both tibial and common peroneal nerves were tightly ligated with 8.0 silk thread together, and a 1-2 mm section of the two nerves was removed. The sural nerve was carefully preserved by avoiding any nerve stretch or nerve contact with surgical tools. Muscle and skin were closed in two distinct layers with chromic catgut 6.0 and silk 6.0 suture, respectively. During recovery, animals were housed in clear plastic cages with a thick layer of sawdust bedding.
Clonidine (2-[(2,6-dichlorophenyl)amino-2-imidazoleine hydrochloride, alpha2AR agonist) was purchased from Sigma (St. Louis, Mo., USA). CCG50014 was diluted in 12% dimethyl sulfoxide (DMSO) in saline.
Each drug was administered by intrathecal injection based on the technique developed by Hylden and Wilcox. […] drugs were dissolved in 5 μl of vehicle. Briefly, for mouse intrathecal injections, a 30-gauge needle (length: 0.5 inch) connected to a 50 μl Hamilton syringe was inserted into the subarachnoid space between the lumbar vertebrae L5 and L6. A flick of the mouse tail provided a reliable indicator that the needle had penetrated the dura meter. The syringe was held in position for a few seconds after the injection of 5 μl/mouse.
To evaluate a degree of pain alleviation in each of the neuralgic mice, a degree of pain responses to mechanical stimuli was measured by measuring mechanical threshold based on the method described in the related art. In detail, mechanical withdrawal thresholds were determined for all mice at day 0 prior to neuropathic surgery in order to obtain normal baseline values of withdrawal threshold to mechanical stimuli. For 56 days post-SNI surgery, all experimental animals were behaviorally tested to confirm the development of mechanical allodynia. […] The test was performed using an ascending series of von Frey filaments (North Coast Medical, Morgan Hill, Calif.). Mice were placed in an acrylic cylinder (6.5 cm in diameter and 17 cm in height) on an elevated metal mesh grid and allowed to acclimate for 30 minutes before testing. Each monofilament (0.008 g, 0.02 g, 0.07 g, 0.16 g, 0.4 g, and 0.6 g) was applied 6 times in ascending order to the midplantar region of each hind paw of mouse. The monofilament that produced a paw withdrawal, flinch, or lick in 3 of 6 applications was defined as the 50% paw withdrawal threshold. The behavioral investigator was blinded to the treatment of animals during the experiments.
Results of each of the experiments above are expressed as means±SEM unless otherwise stated. Data analysis and statistical comparisons were performed using GraphPad Prism version 5.0 (GraphPad Software, San Diego, Calif.). Comparison between two groups was made using the Student's t-test. For multiple comparisons, ANOVA followed by post hoc Tukey test was performed. Differences with P<0.05 were considered significant.

The subject of data set [2] is systolic blood pressure (SBP). To be noted: mouse. As for the experimental part: To evaluate the induction of low blood pressure, systolic blood pressure (SBP) was measured using a non-invasive computerized tail-cuff system as previously described in the art (PowerLab system, ADI Instrument Pry Ltd., Chain Hills, NSW, Australia). Briefly, animals were acclimated for 30 minutes in a quiet test room prior to obtaining cardiovascular measurements. At the end of the 1 hour period, the SBP was measured. This experiment was repeated 3 times and the mean value for each animal was recorded. […] All cardiovascular measurements were obtained between 1 pm to 3 pm in order to avoid changes due to normal circadian rhythms.
(§1) Test results are expressed as means±SEM unless otherwise stated. Data analysis and statistical comparisons were performed using GraphPad Prism version 5.0 (GraphPad Software, San Diego, Calif.). Comparison between two groups was made using the Student's t-test. For multiple comparisons, ANOVA followed by post hoc Tukey test was performed. Differences with P<0.05 were considered significant.

The subject of a further data set is motion performance. To be noted: mouse. How it is done:
To evaluate degradation of motion performance capability as one of side effects caused by the low blood pressure, rotarod test was performed on each of the mice administered with clonidine or the RGS4 inhibitor. […] All mice were tested 24 hours before the actual rotarod test, and mice that were able to remain on the rod for at least 120 seconds were included in the experiment. 30 minutes after clonidine injection, each animal was subsequently tested on the rotarod over 2-minutes period and their performance time on the bar (in seconds) was measured. The test was repeated 3 times and the mean value for each animal was recorded.
as §1

For data set [3] the following is noted: cited from earlier work.

With `Clc1cccc(Cl)c1N=C1NCCN1` [clonidine, 2-[(2,6-dichlorophenyl)amino-2-imidazoleine hydrochloride], the “analgesic efficacy upon co-administration of dynasore” value in data set [1] (mouse SNI, 56th day after SNI, dynasore intrathecally 5 minutes before clonidine (FIG. 9)) is listed as “restored”. Further, in data set [1] (mouse SNI), the “analgesic efficacy at the chronic stage of the neuropathic pain” value was “lost the analgesic efficacy”, the “analgesic efficacy at the earlier stage of the neuropathic pain” value was “exhibited the analgesic efficacy” and the “analgesic efficacy upon co-administration of CCG 50014 (RGS4 inhibitor)” value is “maintained”. Moreover, in data set [1], the “analgesic effect of 1 nmol at 14 days after SNI” value is given as “significant analgesic effect”, the “analgesic effect at 28 days after SNI” value was “decreased”, the “analgesic effect at 56 days after SNI” value is on record as “completely disappeared” and the “analgesic effect at 14 days after SNI” value was “potent analgesic effect”. Further, in data set [1], the “higher dose needed at 56 days after SNI for analgesic effect similar to that at 14 days after SNI” value amounted to 10 fold and the “neuropathic pain induced by SNI (withdrawal threshold)” value is given as “alleviated”. Also, the “low blood pressure side effect” value in data set [2] (1 nmol in combination with the RGS4 inhibitor (FIG. 7)) is “no side effects”. In data set [2] (clonidine 10 nmol alone (effective dose), 30 minutes after treatment (FIG. 7)), the “blood pressure (SBP) change” value is given as “significant symptoms of low blood pressure”. For the same molecule, the “decreased motor performance side effect” value with motion performance (1 nmol in combination with the RGS4 inhibitor (FIG. 8)) is recorded as “no side effects”. In the data set with motion performance (clonidine 10 nmol alone, 30 minutes after injection (FIG. 8)), the “motor performance (rotarod)” value is reported as “rapidly decreased motor performance”. In addition, the side effect result in data set [3] (healthy adult male, concentration gradient from about 150 μg to about 450 μg) is reported as “no side effect”. Further, in data set [3] (human, 1 μg/kg intravenously with lidocaine), the side effects entry was “no statistically significant side effects”. Besides, the harmful side effect result in data set [3] (human, 5 μg/kg orally) is given as “no harmful side effect”.

Take `Cc1cccc([C@H](C)c2c[nH]cn2)c1C.Cl` [dexmedetomidine, 4-[(1S)-1-(2,3-dimethylphenyl)ethyl]-1H-imidazole hydrochloride]: in data set [1] (mouse SNI), the “analgesic efficacy at the chronic stage of the neuropathic pain” value is on record as “lost the analgesic efficacy”, the “analgesic efficacy at the earlier stage of the neuropathic pain” value is listed as “exhibited the analgesic efficacy” and the “analgesic efficacy upon co-administration of CCG 50014 (RGS4 inhibitor)” value is “maintained”. In addition, in data set [1], the “analgesic effect of 1 nmol at 14 days after SNI” value is recorded as “significant analgesic effect”, the “analgesic effect at 28 days after SNI” value is on record as “decreased”, the “analgesic effect at 56 days after SNI” value was “completely disappeared” and the “analgesic effect at 14 days after SNI” value is reported as “potent analgesic effect”. In addition, in data set [1], the “higher dose needed at 56 days after SNI for analgesic effect similar to that at 14 days after SNI” value turned out to be 3 fold and the “neuropathic pain induced by SNI (withdrawal threshold)” value is given as “alleviated”.
